Test results reported in patent US8299048B2, “Hexahydrocyclopentyl[f]indazole sulfonamides and derivatives thereof as selective glucocorticoid receptor modulators” (Merck Sharp & Dohme Corp., priority 2008, dated 2012).

Columns and labels:
human GR [1] = target: T1, human GR (Homo sapiens, UniProt P04150); test: Trans-Activation Modulation of Glucocorticoid Receptor (GRAMMER), MMTV-LUC reporter, agonist mode; format: cell-based; set-up: endogenous in cells; conditions: for Emax: A549, A549 cells, maximum activity, read-out: Transactivation A549 Cells GRAMMER Emax; for EC50: A549 cells, inflection point, read-out: Transactivation A549 Cells GRAMMER IP
T1 sequence (P04150 1-777): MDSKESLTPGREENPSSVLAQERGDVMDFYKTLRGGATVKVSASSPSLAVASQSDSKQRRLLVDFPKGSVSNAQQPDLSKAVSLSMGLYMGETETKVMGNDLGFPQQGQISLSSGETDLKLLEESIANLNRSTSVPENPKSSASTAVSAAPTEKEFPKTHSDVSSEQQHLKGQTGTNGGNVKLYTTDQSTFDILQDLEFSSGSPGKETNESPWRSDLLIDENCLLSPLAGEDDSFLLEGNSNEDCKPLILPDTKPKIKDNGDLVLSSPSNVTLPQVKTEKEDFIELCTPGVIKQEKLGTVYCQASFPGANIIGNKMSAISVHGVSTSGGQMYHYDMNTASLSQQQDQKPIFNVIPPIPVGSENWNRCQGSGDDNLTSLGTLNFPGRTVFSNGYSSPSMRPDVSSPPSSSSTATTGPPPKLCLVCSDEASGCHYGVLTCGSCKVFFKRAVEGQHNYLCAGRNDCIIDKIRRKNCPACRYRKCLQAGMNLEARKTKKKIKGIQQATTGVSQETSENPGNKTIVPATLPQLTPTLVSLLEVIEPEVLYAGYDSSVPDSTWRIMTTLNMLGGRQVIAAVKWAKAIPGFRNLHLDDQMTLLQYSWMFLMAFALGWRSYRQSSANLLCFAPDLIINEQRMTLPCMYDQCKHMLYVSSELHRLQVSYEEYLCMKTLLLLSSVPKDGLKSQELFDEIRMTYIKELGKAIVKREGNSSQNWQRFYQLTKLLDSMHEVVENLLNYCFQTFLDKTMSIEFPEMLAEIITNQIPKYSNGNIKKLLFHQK
How it was run: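 Readout is luciferase from a modified MMTV LTR promoter after 24 h compound exposure alongside 10 nM dexamethasone (100% activity reference), DMSO ≤1%.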

human GR [2] = target: T1, human GR; test: Transrepression Assay (GITAR), TNFα-β-lactamase reporter in U937 cells; format: cell-based; set-up: U937 cells contain an endogenous glucocorticoid receptor (GR); endogenous in cells; host or cells: U937 cells stably transfected with the TNF-alpha promoter/beta-lactamase reporter; conditions: for GITAR > GRAMM % SEP: GITAR Emax minus GRAMMER Emax; for EC50: U937 cells, inflection point, read-out: Transrepression U937 Cells GITAR IP
How it was run: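 Repression normalised to 100 nM dexamethasone (100%), measured with CCF2-AM β-lactamase substrate after 70–90 min at room temperature. Stably transfected U937 cells were exposed to compound 30–45 min, then to PMA (5 ng/ml final) plus LPS (100 ng/ml final) overnight (~18 hr), 37° C.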

[3] = U-937, U937 cells, maximum activity, read-out: Transrepression U937 Cells GITAR Emax
[4] = U-937, activity repressed by 100 nM dexamethasone alone set as 100%, read-out: maximal activity in the transrepression (GITAR) assay

Structure (SMILES)	Emax (human GR [1])	EC50 (human GR [1])	GITAR > GRAMM % SEP (human GR [2])	EC50 (human GR [2])	Emax (human GR [2]; [3])	Emax (human GR [2]; [4])
C[C@]12Cc3cnn(-c4ccc(F)cc4)c3C=C1CC[C@@H]2CN(CC(O)C(F)(F)F)S(=O)(=O)Cc1ccccc1C(N)=O (stereo partly drawn) [Example 167, 2-({[{[(4αR,5S)-1-(4-fluorophenyl)-4α-methyl-1,4,4α,5,6,7-hexahydrocyclopenta[f]indazol-5-yl]methyl}(3,3,3-trifluoro-2-hydroxypropyl)amino]sulfonyl}methyl) benzamide]	74.9%	150 nM	12.5%	159 nM	87.4%	> 5%
Cc1noc(C)c1S(=O)(=O)N(C[C@H]1CCC2=Cc3c(cnn3-c3ccc(F)cc3)C[C@@]21C)C[C@@H](C)O [Example 168, N-{[(4αR,5S)-1-(4-fluorophenyl)-4α-methyl-1,4,4α,5,6,7-hexahydrocyclopenta[f]indazol-5-yl]methyl}-N-[(2R)-2-hydroxypropyl]-3,5-dimethylisoxazole-4-sulfonamide]	48.1%	123 nM	35.0%	119 nM	83.1%	> 5%
